Source: patent US20230338322A1, “GLYCERYLTRIACETATE (GTA) FOR USE IN IMPROVING BREATHING” (YISSUM RESEARCH DEVELOPMENT COMPANY OF THE HEBREW …, priority 2020, published 2023)

Columns and labels:
[1] = Treating Long-COVID (post-corona) patients with GTA capsules; format: in vivo, human; details: softgel GTA 12 ml daily oral
Text: Long COVID is a range of symptoms that can last weeks or months after first being infected with the virus that causes COVID-19 or can appear weeks after infection. 5 Long-Covid subjects who recovered from COVID-19 infection (=became PCR negative) but still have significant breathing problems that compromised their daily physical activities. […] Treatment duration was between 5-10 days, according to recovery rate.

[2] = Treating asthmatic patients with GTA capsules
Protocol: These patients where orally administered softgel capsules filled with GTA at a daily dose of 12 ml, either 4 ml three times a day or 6 ml twice a day, during or immediately after meal. Treatment duration was 7 days.

[3] = tested on: SARS-Cov2 (COVID-19 infection); test: Treating SARS-Cov2 infected patients (COVID-19 infection); format: in vivo, human; details: all 11 patients, age 60-89, PCR positive with respiratory symptoms; softgel GTA 12 ml daily oral, 5-10 days, no other medication
Text: Eleven subjects, age 60-89 with various comorbidities, who were positive for COVID-19 infection by the PCR test and already developed respiratory-related symptoms of the disease. […] Treatment duration was between 5-10 days, according to recovery rate.

[4] = Treating a bronchitis patient with GTA capsules; details: softgel GTA 12 ml daily for a total of 5 days
tumor-model = details: GTA alone versus combination with chemotherapy (TMZ); WO13013061; cited from earlier work
[5] = Treating lung cancer patient with breathing difficulties
Protocol: The patient started taking pure glyceryl-triacetate (GTA), encapsulated in hard-shell Vegicaps (produced by Capsugel), 12 ml a day, divided among 3 meals. After 3 days the patient increased the dose to 24 ml a day and after additional 3 days they consumed a daily dose of 30 ml GTA for a period of 1 month.

[6] = aqueous solution; cited from earlier work
[7] = Madhavarao 2009, Segel 2011; cited from earlier work
swine flu infection = details: human, in vivo, po

CC(=O)OCC(COC(C)=O)OC(C)=O [GTA, Glyceryltriacetate]
time to recovery from breathing problems ([1]; 5 Long-Covid patients): 5 to 10 days
recovery from breathing problems ([1]; all 5 Long-Covid patients, no other medication): fully or almost fully recovered
duration of the beneficial effect ([2]; after 7 days of GTA 12 ml daily, then 2nd round required): 1-8 weeks
patient-reported breathing ([2]; all 4 chronic asthmatic patients, softgel GTA 12 ml daily oral, 7 days, including giving up inhalation): outstanding improvement
recovery from the disease [3]: fully recovered
patient-reported coughing and breathing [4]: less to no coughing, improved breathing
improvement in in-vivo tumor-model (tumor-model): not by GTA by itself
tumor mass on CT ([5]; GTA up to 30 ml daily for 1 month): no improvement in tumor mass
self-reported breathing ([5]; within 2 days after start of GTA 12 ml a day): breathing is much easier
use of inhaled Salbutamol ([5]; within a week, GTA 12 ml then 24 ml a day): stopped taking Salbutamol
walking distance without taking a break ([5]; within a week, before treatment not more than ~50 m): hundreds of meters
water solubility limit [6]: 0.25%
therapeutic benefit in Canavan disease clinical trials [7]: failed to show any therapeutic benefit
patient's healing compared to non-treated patients (swine flu infection): acceleration of patient's healing
